Read-outs that look alike come from different tables or passages of the source.
How the values were obtained:
[1] = tested on: NCI-H226
[2] = tested on: NCI-H322M; conditions: NCI-H322M
[3] = tested on: NCI-H522
[4] = tested on: COLO 205
[5] = tested on: HCC-2998; conditions: HCC-2998
[6] = tested on: SNB-19
[7] = tested on: SNB-75
[8] = tested on: MALME-3M
[9] = tested on: OVCAR-4
[10] = tested on: OVCAR-8
[11] = tested on: 788-0; conditions: 786-0
[12] = tested on: ACHN
[13] = tested on: RXF 393; conditions: RXF 393
[14] = tested on: NCI/ADR-RES; conditions: NCI/ADR-RES
[15] = tested on: HCT-15; test: cells; conditions: Homo sapiens
[16] = tested on: HT29; test: cells; conditions: Homo sapiens
[17] = tested on: SF-539; test: cells; conditions: Homo sapiens
[18] = tested on: SNB-75; test: cells; conditions: Homo sapiens
[19] = tested on: SK-MEL-5; test: cells; conditions: Homo sapiens
[20] = tested on: IGROV1; test: cells; conditions: Homo sapiens
[21] = tested on: SN12C; test: cells; conditions: Homo sapiens
[22] = tested on: TK-10; test: cells; conditions: Homo sapiens
[23] = tested on: DU-145; test: cells; conditions: Homo sapiens
[24] = tested on: MDA-MB-231/ATCC; test: cells; conditions: Homo sapiens
[25] = tested on: T-47D; test: cells; conditions: Homo sapiens, T47D

CNC(=O)NC[C@H]1O[C@@H](n2cnc3c(NC(=O)Nc4ccccc4)ncnc32)[C@H](O[Si](C)(C)C(C)(C)C)[C@@H]1CC(=O)N(C)OC [Compound 13, 2′-O-(tert-Butyldimethylsilyl)-3′,5′-dideoxy-3′-[(N-methoxy-N-methylcarboxamido)methyl]-5′-[(N-methylcarbamoyl)amino]-N^6-(N-phenylcarbamoyl)adenosine]
TGI [1]: >1.00E−4 Molar | Percent Growth ([1]; Log10 Concentration −4.0): 40% | Percent Growth ([1]; Log10 Concentration −5.0): 66% | Percent Growth ([1]; Log10 Concentration −6.0): 99% | Percent Growth ([1]; Log10 Concentration −7.0): 111% | Percent Growth ([1]; Log10 Concentration −8.0): 103% | TGI [2]: >1.00E−4 Molar | Percent Growth ([2]; Log10 Concentration −4.0): 73% | Percent Growth ([2]; Log10 Concentration −5.0): 90% | Percent Growth ([2]; Log10 Concentration −6.0): 102% | Percent Growth ([2]; Log10 Concentration −7.0): 98% | Percent Growth ([2]; Log10 Concentration −8.0): 97% | TGI [3]: >1.00E−4 Molar | Percent Growth ([3]; Log10 Concentration −4.0): 31% | Percent Growth ([3]; Log10 Concentration −5.0): 51% | Percent Growth ([3]; Log10 Concentration −6.0): 84% | Percent Growth ([3]; Log10 Concentration −7.0): 87% | Percent Growth ([3]; Log10 Concentration −8.0): 90% | TGI [4]: >1.00E−4 Molar | Percent Growth ([4]; Log10 Concentration −4.0): 1% | Percent Growth ([4]; Log10 Concentration −5.0): 55% | Percent Growth ([4]; Log10 Concentration −6.0): 90% | Percent Growth ([4]; Log10 Concentration −7.0): 93% | Percent Growth ([4]; Log10 Concentration −8.0): 97% | TGI [5]: >1.00E−4 Molar | Percent Growth ([5]; Log10 Concentration −4.0): 33% | Percent Growth ([5]; Log10 Concentration −5.0): 66% | Percent Growth ([5]; Log10 Concentration −6.0): 100% | Percent Growth ([5]; Log10 Concentration −7.0): 97% | Percent Growth ([5]; Log10 Concentration −8.0): 102% | TGI [6]: >1.00E−4 Molar | Percent Growth ([6]; Log10 Concentration −4.0): 51% | Percent Growth ([6]; Log10 Concentration −5.0): 61% | Percent Growth ([6]; Log10 Concentration −6.0): 83% | Percent Growth ([6]; Log10 Concentration −7.0): 93% | Percent Growth ([6]; Log10 Concentration −8.0): 94% | TGI [7]: >1.00E−4 Molar | Percent Growth ([7]; Log10 Concentration −4.0): 12% | Percent Growth ([7]; Log10 Concentration −5.0): 54% | Percent Growth ([7]; Log10 Concentration −6.0): 84% | Percent Growth ([7]; Log10 Concentration −7.0): 95% | Percent Growth ([7]; Log10 Concentration −8.0): 94% | TGI [8]: >1.00E−4 Molar | Percent Growth ([8]; Log10 Concentration −4.0): 23% | Percent Growth ([8]; Log10 Concentration −5.0): 52% | Percent Growth ([8]; Log10 Concentration −6.0): 93% | Percent Growth ([8]; Log10 Concentration −7.0): 88% | Percent Growth ([8]; Log10 Concentration −8.0): 103% | TGI [9]: >1.00E−4 Molar | Percent Growth ([9]; Log10 Concentration −4.0): 46% | Percent Growth ([9]; Log10 Concentration −5.0): 60% | Percent Growth ([9]; Log10 Concentration −6.0): 96% | Percent Growth ([9]; Log10 Concentration −7.0): 100% | Percent Growth ([9]; Log10 Concentration −8.0): 100% | TGI [10]: >1.00E−4 Molar | Percent Growth ([10]; Log10 Concentration −4.0): 22% | Percent Growth ([10]; Log10 Concentration −5.0): 48% | Percent Growth ([10]; Log10 Concentration −6.0): 103% | Percent Growth ([10]; Log10 Concentration −7.0): 106% | Percent Growth ([10]; Log10 Concentration −8.0): 107% | TGI [11]: >1.00E−4 Molar | Percent Growth ([11]; Log10 Concentration −4.0): 8% | Percent Growth ([11]; Log10 Concentration −5.0): 48% | Percent Growth ([11]; Log10 Concentration −6.0): 93% | Percent Growth ([11]; Log10 Concentration −7.0): 92% | Percent Growth ([11]; Log10 Concentration −8.0): 95% | TGI [12]: >1.00E−4 Molar | Percent Growth ([12]; Log10 Concentration −4.0): 23% | Percent Growth ([12]; Log10 Concentration −5.0): 55% | Percent Growth ([12]; Log10 Concentration −6.0): 95% | Percent Growth ([12]; Log10 Concentration −7.0): 102% | Percent Growth ([12]; Log10 Concentration −8.0): 107% | TGI [13]: 3.80E−5 Molar | Percent Growth ([13]; Log10 Concentration −4.0): −36% | Percent Growth ([13]; Log10 Concentration −5.0): 49% | Percent Growth ([13]; Log10 Concentration −6.0): 98% | Percent Growth ([13]; Log10 Concentration −7.0): 100% | Percent Growth ([13]; Log10 Concentration −8.0): 103% | TGI [14]: >1.00E−4 Molar | Percent Growth ([14]; Log10 Concentration −4.0): 55% | Percent Growth ([14]; Log10 Concentration −5.0): 76% | Percent Growth ([14]; Log10 Concentration −6.0): 105% | Percent Growth ([14]; Log10 Concentration −7.0): 109% | Percent Growth ([14]; Log10 Concentration −8.0): 109% | GI50 ([15]; HCT-15): 6.47 µM | CC50 ([15]; HCT-15, read-out: LC50): > 100 µM | GI50 ([16]; HT-29): 5.37 µM | CC50 ([16]; HT-29, read-out: LC50): > 100 µM | GI50 ([17]; SF-539): 22.3 µM | CC50 ([17]; SF-539, read-out: LC50): > 100 µM | GI50 ([18]; SNB-75): 12.7 µM | CC50 ([18]; SNB-75, read-out: LC50): > 100 µM | GI50 ([19]; SK-MEL-5): 5.81 µM | CC50 ([19]; SK-MEL-5, read-out: LC50): > 100 µM | GI50 ([20]; IGROV-1): 3.72 µM | CC50 ([20]; IGROV-1, read-out: LC50): > 100 µM | GI50 [21]: 85.3 µM | CC50 ([21]; read-out: LC50): > 100 µM | GI50 ([22]; TK-10): 20.5 µM | CC50 ([22]; TK-10, read-out: LC50): > 100 µM | GI50 ([23]; DU-145): 16.6 µM | CC50 ([23]; DU-145, read-out: LC50): > 100 µM | GI50 ([24]; MDA-MB-231): 12.3 µM | CC50 ([24]; MDA-MB-231, read-out: LC50): > 100 µM | GI50 [25]: 13.9 µM | CC50 ([25]; read-out: LC50): > 100 µM

Reference: patent publication US20100152434A1, “Protein Kinase-binding Nucleosides and Associated Methods” (priority 2007, published 2010)
